According to patent EP0179667B1, “N6-substituted adenosines” (priority 1984, dated 1986):

How the values were obtained:
adenosine A2 receptor = molecular target: T1, adenosine A2 receptor (Rattus norvegicus, UniProt P30543); test: Adenosine Receptor Binding - A2 Receptor Affinity (RBA2); conditions: [3H]NECA, rat striatal membranes; read-out: RBA-2
T1 construct: 5 mg original tissue weight of rat weight of rat striatal membranes; tissue Pel-Freez (Rogers, Arkansas); host or cells: rat striatum, membrane preparation
Protocol: Adenosine Receptor Binding - A2 Receptor Affinity (RBA2)
Brains from 200-500 g mixed sex Sprague-Dawley rats were purchased from Pel-Freez (Rogers, Arkansas). […] Brains were thawed and then kept on ice while the striata were dissected out. […] When needed, tissue was thawed at room temperature, disrupted in a Polytron, and kept on ice until used.
All incubations were for 60 minutes at 25°C in 12x75 mm glass tubes containing 1 ml Tris with 5 mg original tissue weight of rat weight of rat striatal membranes, 4 nM [^3H]-N-ethyl adenosine-5'-carboxamide ([^3H]NECA), 50 nM N^6-cyclopentyladenosine (to eliminate A1 receptor binding), 10 mM MgCl2, 0.1 units/ml of adenosine deaminase and 1% dimethylsulfoxide. N^6-Cyclopentyladenosine was dissolved at 10 mM in 0.02 N HCI and diluted in Tris. […] Test compounds were dissolved at 10 mM in dimethylsulfoxide on the same day as the experiment, and diluted in dimethylsulfoxide to 100x the final incubation concentration. […] [^3H]NECA was diluted to 40 nM in Tris. The membrane suspension (5 mg/0.79 ml) contained sufficient MgC12 and adenosine deaminase to give 10 mM and 0.1 units/ml, respectively, final concentration in the incubation. For test compounds with lC50 values less than 1 µM, the order of additions was test compound (10 µl), N^6-cyclopentyladenosine (100 µl), [^3H]NECA (100 µl), and membranes (0.79 ml). […] After all additions, the rack of tubes was vortexed, and the tubes were then incubated for 60 min at 25°C in a shaking water bath. The rack of tubes was vortexed an additional time halfway through the incubation.
incubations were terminated by filtration through 2.4 cm GF/B filters under reduced pressure. Each tube was filtered as follows: the contents of the tube were poured onto the filter, 4 ml of ice-cold Tris were added to the tube and the contents poured onto the filter, and the filter was washed twice with 4 ml of ice-cold Tris. The filtration was complete in about twelve seconds.
Nonspecific binding was defined as binding in the presence of 100 µM N^6-cyclopentyladenosine, and specific binding was defined as total binding minus nonspecific binding. The IC50 was calculated by weighed nonlinear least squares curve-fitting to the mass-action equation. [formula] • where Y is cpm bound • T is cpm total binding without drug • S is cpm specific binding without drug • D is the concentration of drug • and K is the IC50 of the drug Weighting factors were calculated under the assumption that the standard deviation was proportional to the predicted value of Y. Nonspecific binding was treated as a very large (infinite) concentration of drug in the computer analysis.

conscious rat = test: Antihypertensive evaluation (AHP3): direct monitoring of aortic blood pressure and heart rate; format: in vivo
Text: This test procedure is described in the following paragraphs. A Method for the Direct Monitoring of Aortic Blood Pressure and Heart Rate from Conscious Rats The continuous monitoring of pulsatile blood pressure (BP) from unrestrained conscious rats surgically equipped with polyethylene cannulas was accomplished by means of a computer assisted data capture scheme (CADCS). The basic elements of the methodology are the cannulation procedure and the CADCS. Cannulation Procedure: Rats were anesthetized with Telazol (1:1 tiletamine HCI and zolazepam HCI); 20-40 mg/kg IM and the descending aorta exposed via a midline incision. Cannulas fabricated from polyethylene tubing were inserted into the aorta via an undersized puncture hole below the renal arteries. […] The cannulas, consisting of a PE100 (0.86 mm ID) body and a PE50 (0.58 mm ID) tip, were attached to a trocar, inserted through the psoas muscle, and passed subcutaneously along the midline of the back and externalized between the ears. The cannulas were anchored to the posas muscle and between the scaluale (3-0 green braided suture). The midline incision was closed in two steps (muscle first, skin second) using continuous over-and over sutures (4-0 chronic). Each rat was then given penicillin 30,000 units subcutaneously (Penicillin G Procaine Sterile Suspension). The rats were fitted with a harness-spring-swivel assembly designed to protect the cannula and to provide the rat relative freedom of movement. […] While on test, each rat received a continuous slow infusion of heparinized saline solution (approximately 400 I or 40 units of heparin per 24 hour period) to prevent clot formation. […] The data were first stored on the data concentrator disk and then transferred to a magnetic tape for analysis and report generation by the main research computer. The overall scheme involved modulating the primary signal from the pressure transducer, generating the primary data set of the one-minute values for systolic, diastolic, and mean blood pressures and heart rate by the in-lab microcomputer and the storage, analysis, and report generation by the main research computer. The transducers were connected to analog signal conditioning mocules. The modules provided a regulated excitation voltage for the transducers, amplification as required to interface the microprocessors and an active low pass filter to compensate for the pressure wave form distortion produced by the flexible, fluid filled, narrow cannula. […] The microcomputer controlled the sequential acqusition of data from the modular interface units through an internal synchronous time-of-day clock/time base generator. […] The microcomputer processed each blood pressure sample as it was received to produce "running average" values for heart rate, and mean, systolic and diastolic blood pressures.

T1 sequence (P30543 whole entry): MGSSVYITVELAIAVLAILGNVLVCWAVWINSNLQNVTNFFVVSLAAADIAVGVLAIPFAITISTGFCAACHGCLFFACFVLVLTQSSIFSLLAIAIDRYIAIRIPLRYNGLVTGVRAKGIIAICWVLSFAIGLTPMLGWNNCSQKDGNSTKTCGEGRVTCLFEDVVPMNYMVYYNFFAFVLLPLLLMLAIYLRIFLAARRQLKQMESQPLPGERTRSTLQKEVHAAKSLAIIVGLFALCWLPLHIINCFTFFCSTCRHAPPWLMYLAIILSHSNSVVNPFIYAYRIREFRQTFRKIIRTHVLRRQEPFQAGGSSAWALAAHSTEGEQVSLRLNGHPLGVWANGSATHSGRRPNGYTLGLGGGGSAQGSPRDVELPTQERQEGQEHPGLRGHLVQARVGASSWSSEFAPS

Compound | IC50 (adenosine A2 receptor) [nM] | also measured
CC(=O)Oc1ccccc1C(=O)OC[C@H]1O[C@@H](n2cnc3c(NC4CCCc5ccccc54)ncnc32)[C@H](O)[C@@H]1O (stereo partly shown) [Example 14, N^6-(1-tetralinyl)-5'-O-(O-acetylsalicoyl)adenosine] | 57100 | –
CC1CCc2ccccc2C1Nc1ncnc2c1ncn2[C@@H]1O[C@H](CO)[C@@H](O)[C@H]1O (stereo partly shown) [Example 4, N^6-[1-(2-Methyl)-tetralinyl]-adenosine] | 524 | –
CC(=O)OC[C@H]1O[C@@H](n2cnc3c(NC4CCCc5ccccc54)ncnc32)[C@H](O)[C@@H]1O (stereo partly shown) [Example 15, N^6-(1-tetralinyl)-5'-acetyl-adenosine] | 4440 | –
OC[C@H]1O[C@@H](n2cnc3c(NCC4(O)CCCc5ccccc54)ncnc32)[C@H](O)[C@@H]1O (stereo partly shown) [Example 23, N^6-[1-hydroxy-1-tetralinyl]methyl adenosine] | 2850 | –
OC[C@H]1O[C@@H](n2cnc3c(NCC4(O)CCCCc5ccccc54)ncnc32)[C@H](O)[C@@H]1O (stereo partly shown) [Example 27, N^6-(1-hydroxy-1-benzocycloheptyl]methyladenosine] | 4010 | –
COc1ccc2c(c1)C(Nc1ncnc3c1ncn3[C@H]1O[C@H](CO)[C@@H](O)[C@H]1O)CCC2 (stereo partly drawn) [Example 9, (S)-N^6-(7-methoxy-1-tetralinyl)-adenosine] | 50500 | change in MAP (Mean Arterial Pressure) (conscious rat; 3 mg/kg, Hour 5, conscious rat): 9%
OC[C@H]1O[C@@H](n2cnc3c(NCC4=CCCc5ccccc54)ncnc32)[C@H](O)[C@@H]1O [Example 24, N^6-[3,4-dihydro-1-naphthalenyl]methyladenosine] | 76.5 | –
OC[C@H]1O[C@@H](n2cnc3c(NCC4CCCCc5ccccc54)ncnc32)[C@H](O)[C@@H]1O (stereo partly shown) [Example 28, N^6-(1-benzocycloheptyl)methyladenosine] | 1270 | –
COc1ccc2c(c1)C(Nc1ncnc3c1ncn3[C@@H]1O[C@H](CO)[C@@H](O)[C@H]1O)CCC2 (single isomer, unassigned) [Example 5, N6-[1-(7-Methoxy)-tetralinyl]-adenosine] | 918 | change in HR (Heart Rate) (conscious rat; 3 mg/kg, Hour 1, conscious rat): 0%
OC[C@H]1O[C@@H](n2cnc3c(NCC4(O)CCc5ccccc54)ncnc32)[C@H](O)[C@@H]1O (stereo partly shown) [Example 25, N^6-[2,3-dihydro-1-hydroxy-1H-inden-1-yl]methyladenosine] | 987 | –
Cc1cc(C)c2c(c1)C(Nc1ncnc3c1ncn3[C@@H]1O[C@H](CO)[C@@H](O)[C@H]1O)CCC2 (stereo partly shown) [Example 18, N^6-[1-(5,7-dimethyl)-tetralinya]-adenosine] | 366 | –
OC[C@H]1O[C@@H](n2cnc3c(NCC4=CCc5ccccc54)ncnc32)[C@H](O)[C@@H]1O [Example 22, N^6-[1H-inden-3-yl]methyladenosine] | 65.5 | –
OC[C@H]1O[C@@H](n2cnc3c(NCC4=CCCCc5ccccc54)ncnc32)[C@H](O)[C@@H]1O [Example 26, N^6-(1-benzocycloheptenyl)methyladenosine] | 2700 | –
COc1ccc2c(c1)C(Nc1ncnc3c1ncn3[C@@H]1O[C@H](CO)[C@@H](O)[C@H]1O)CCC2 (single isomer, unassigned) [Example 8] | 407 | –
OC[C@H]1O[C@@H](n2cnc3c(NCC4CCc5ccccc54)ncnc32)[C@H](O)[C@@H]1O (stereo partly shown) [Example 21, N^6-[2,3-dihydro-1H-inden-1-yl]methyladenosine] | 99 | –
COc1ccc2c(c1)CCCC2Nc1ncnc2c1ncn2[C@@H]1O[C@H](CO)[C@@H](O)[C@H]1O (stereo partly shown) [Example 6, N^6-[1-(6-Methoxy)-tetralinyl]-adenosine] | 4370 | –

More lines, main results first:

IC50 (adenosine A2 receptor) [nM] | Compound | also measured
243 | OC[C@H]1O[C@@H](n2cnc3c(NC4CCCc5ccccc54)ncnc32)[C@H](O)[C@@H]1O (stereo partly drawn) [Example 2, (R)-N^6-[1-Tetralinyl]-adenosine] | –
260 | OC[C@H]1O[C@@H](n2cnc3c(NC4CCCc5c(O)cccc54)ncnc32)[C@H](O)[C@@H]1O (stereo partly shown) [Example 16, N^6-[1-(5-hydroxy)-tetralinyl]-adenosine] | change in HR (Heart Rate) (conscious rat; 3 mg/kg, Hour 9, conscious rat): 0%
238 | OC[C@H]1O[C@@H](n2cnc3c(NC4CCCc5ccc(O)cc54)ncnc32)[C@H](O)[C@@H]1O (stereo partly shown) [Example 17] | –
324 | COc1cccc2c1CCCC2Nc1ncnc2c1ncn2[C@@H]1O[C@H](CO)[C@@H](O)[C@H]1O (stereo partly shown) [Example 7, N^6-[5-Methoxy-1-aminotetralin]-adenosine] | –
217 | COc1cccc2c1CCC[C@@H]2Nc1ncnc2c1ncn2[C@@H]1O[C@H](CO)[C@@H](O)[C@H]1O [Example 10, (S)-N^6-[5-methoxy-1-aminotetralin]-adenosine] | –
476 | OC[C@H]1O[C@@H](n2cnc3c(NC4CCCc5ccccc54)ncnc32)C(O)[C@@H]1O (stereo in doubt) [Example 1, (R,S)-N^6-[1-Tetralinyl]-adenosine] | change in HR (Heart Rate) (conscious rat; 10 mg/kg, Hour 9, conscious rat): 0%
2030 | OC[C@H]1O[C@H](n2cnc3c(NC4CCCc5ccccc54)ncnc32)[C@H](O)[C@@H]1O (stereo partly drawn) [Example 3, (S)-N^6-[1-Tetralinyl]-adenosine] | change in HR (Heart Rate) (conscious rat; 10 mg/kg, Hour 5, conscious rat): 0%
